Drawing on ChEMBL document CHEMBL2390945, “Synthesis and characterization of 123I-CMICE-013: a potential SPECT myocardial perfusion imaging agent” (Bioorg Med Chem, 2013), this text covers tissue uptake and Drug uptake for two molecules.

Assay type in all cases: ADME, organism-based
The nature of data set [1]: Biodistribution in rat liver at 15 mins. The conditions noted are these: read-out: Drug uptake.
A short description of data set [2]: Biodistribution in rat liver at 60 mins. The conditions noted are these: read-out: Drug uptake.
The test system of data set [3] is Liver. The data set is described as follows: Biodistribution in rat liver at 15 uci, iv measured at 60 mins. To be noted: in vivo, 1 h.
For data set [4], the system named is Liver. The data set is described as follows: Biodistribution in rat liver at 15 uci, iv measured at 15 mins. The conditions noted are these: in vivo, 0.25 h.

Consider `CC(C)(C)n1ncc(OCc2ccc(CCCC[18F])cc2)c(Cl)c1=O`, for which the tissue uptake at 0.25 h in data set [1] was 1.6 %ID/g. Further, the tissue uptake at 1 h in data set [2] is 1.3 %ID/g.

As for `CC(C)(C)n1ncc(OCc2ccc(COCCF)cc2)c(Cl)c1=O` [FLURPIRIDAZ], the Drug uptake in the data set with Liver [3] came out at 0.9 % ID/g; in the data set with Liver [4] it was 1.4 % ID/g.
